Experimental data published in patent publication US11957766B2, “HNQO1-activatable fluorescent probe for imaging cancer cells in-vitro and in-vivo” (Texas Tech University System, priority 2019, dated 2024).

Tested on: A549 and MDA-MB-231 tumors
Experiment: In vivo imaging of NQO1-positive (A549) and -negative (MDA-MB-231) xenografts in the same animal with NIR-ASM
Set-up: species or system nude mice
Settings: intravenous, tumors of 200 mm^3
Experimental: Additionally, to validate the NQO1-specific activation of NIR-ASM to generate fluorescence, the inventors generated NQO1-positive (A549) and -negative (MDA-MB-231) xenografts in the same animal by injecting the corresponding tumor cells on the left and right flanks of the nude mice respectively. When tumors reached a volume of 200 mm^3, NIR-ASM was administered through intravenous injection and the animals were imaged using the In Vivo imager.
In vivo bioimaging. The animal study protocol was approved by the Institutional Animal Use and Care Committee (IACUC), Texas Tech University Health Sciences Center, Protocol number: 07050. All experimental protocols used in this study were approved by IACUC, Texas Tech University Health Sciences Center and all the methods were carried out according to the committee guidelines. Female athymic nude mice (nu/nu, 4-6 weeks) were purchased from Charles River Laboratories (Wilmington, MA, USA). BALB/c57 mice were provided by Dr. Constantinos Mikelis of our University. To establish A549 or MDA-MB-231 xenografts, a total of 5×10^6 cells (in 0.1 ml of serum-free media and Matrigel (1:1)) were subcutaneously injected into the flanks of the mice. […] All animals were monitored for activity, physical condition, body weight, and tumor growth. […] Fluorescence represented in log values of radiance is photons per second per square centimeter per steradian.

SMILES: CC1=C(C)C(=O)C(C(C)(C)CC(=O)Nc2ccc(/C=C/C3=CC(=C(C#N)C#N)CC(C)(C)C3)cc2)=C(C)C1=O [NIR-ASM, (E)-N-(4-(2-(3-(dicyanomethylene)-5,5-dimethylcyclohex-1-en-1-yl)vinyl)phenyl)-3-methyl-3-(2,4,5-trimethyl-3,6-dioxocyclohexa-1,4-dien-1-yl)butanamide]
- fluorescence signal, NQO1-positive A549 tumor: observed only from the A549 tumor
- fluorescence signal, NQO1 negative MDAMB-231 tumors: no signal was discernible
